According to patent publication US20230233569A1 (Revolution Medicines, Inc., priority 2020, published 2023):
Like-named read-outs stand apart in the source and are kept apart here.

Tests used:
Assay in all cases: Ras-Raf disruption / FRET / MOA assay (BRAF RBD)
Format in all cases: biochemical
KRAS G12D = KRAS G12D (Homo sapiens, UniProt P01116+P62937, G12D); conditions: with Cyclophilin A
How it was run: (§1)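 Compound-induced Ras–Cyclophilin A ternary complex disrupting BRAF RBD binding, read as IC50 from reduced TR-FRET ratio relative to DMSO. Final: Ras-GMPPNP 12.5 nM, BRAF RBD 50 nM, Cyclophilin A 25 μM, top compound 30 μM (3-fold, 10 points); 3 h at 25 °C, then 1.5 h with detection antibodies.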

KRAS G12S = KRAS G12S (Homo sapiens, UniProt P01116+P62937, G12S); conditions: with Cyclophilin A
How it was run: as §1

KRAS G12V = KRAS G12V (Homo sapiens, UniProt P01116+P62937, G12V); conditions: with Cyclophilin A
How it was run: as §1

KRAS G13C = KRAS G13C (Homo sapiens, UniProt P01116+P62937, G13C); conditions: with Cyclophilin A
How it was run: as §1

KRAS G13D = KRAS G13D (Homo sapiens, UniProt P01116+P62937, G13D); conditions: with Cyclophilin A
How it was run: as §1

KRAS Q61H = KRAS Q61H (Homo sapiens, UniProt P01116+P62937, Q61H)
How it was run: as §1

KRAS WT = KRAS WT (Homo sapiens, UniProt P01116+P62937); conditions: with Cyclophilin A
How it was run: as §1

NRAS G12C = NRAS G12C (Homo sapiens, UniProt P01111+P62937, G12C)
How it was run: as §1

NRAS Q61K = NRAS Q61K (Homo sapiens, UniProt P01111+P62937, Q61K)
How it was run: as §1

NRAS Q61R = NRAS Q61R (Homo sapiens, UniProt P01111+P62937, Q61R)
How it was run: as §1

NRAS WT = NRAS WT (Homo sapiens, UniProt P01111+P62937)
How it was run: as §1

KRAS G12C = KRAS G12C (Homo sapiens, UniProt P01116+P62937, G12C); conditions: with Cyclophilin A
How it was run: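 TR-FRET read-out after 1.5 h with anti-His Eu-W1024 (10 nM) and anti-GST APC (50 nM), following 3 h at 25 °C of compound (top 30 μM, 3-fold, 10 points) with 25 μM Cyclophilin A, 12.5 nM GMPPNP-loaded K-Ras G12C and 50 nM BRAF RBD; IC50 reported.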

[1] = KRAS G12D FRET data IC50, Ras-Raf disruption
[2] = KRAS G12S FRET data IC50, Ras-Raf disruption
[3] = KRAS G12V FRET data IC50, Ras-Raf disruption
[4] = KRAS G13C FRET data IC50, Ras-Raf disruption
[5] = KRAS G13D FRET data IC50, Ras-Raf disruption
[6] = KRAS WT FRET data IC50, Ras-Raf disruption
[7] = NRAS G12C FRET data IC50, NRAS G12C
[8] = KRAS G12C FRET data IC50, Ras-Raf disruption
[9] = Ras-Raf disruption, read-out: KRAS G12D FRET data IC50
[10] = Ras-Raf disruption, read-out: KRAS G12S FRET data IC50
[11] = Ras-Raf disruption, read-out: KRAS G12V FRET data IC50
[12] = Ras-Raf disruption, read-out: KRAS G13C FRET data IC50
[13] = Ras-Raf disruption, read-out: KRAS G13D FRET data IC50
[14] = KRAS Q61H, read-out: KRAS Q61H FRET data IC50
[15] = Ras-Raf disruption, read-out: KRAS WT FRET data IC50
[16] = NRAS G12C, read-out: NRAS G12C FRET data IC50
[17] = NRAS Q61K, read-out: NRAS Q61K FRET data IC50
[18] = NRAS Q61R, read-out: NRAS Q61R FRET data IC50
[19] = NRAS WT, read-out: NRAS WT FRET data IC50
[20] = Ras-Raf disruption, read-out: KRAS G12C FRET data IC50

Chain of KRAS G13C (P01116 1-169 isoform P01116-2 G13C limits assumed): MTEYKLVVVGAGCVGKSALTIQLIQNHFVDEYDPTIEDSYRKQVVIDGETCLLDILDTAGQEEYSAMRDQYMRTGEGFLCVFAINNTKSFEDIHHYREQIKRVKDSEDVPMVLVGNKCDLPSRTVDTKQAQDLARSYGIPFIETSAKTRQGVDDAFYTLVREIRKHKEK
Chain of KRAS G13C (P62937 whole entry): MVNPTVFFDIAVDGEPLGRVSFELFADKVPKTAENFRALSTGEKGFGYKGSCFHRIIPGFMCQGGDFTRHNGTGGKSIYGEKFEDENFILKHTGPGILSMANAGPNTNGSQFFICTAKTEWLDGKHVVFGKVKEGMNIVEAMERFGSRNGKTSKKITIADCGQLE
Chain of NRAS Q61K (P01111 whole entry Q61K): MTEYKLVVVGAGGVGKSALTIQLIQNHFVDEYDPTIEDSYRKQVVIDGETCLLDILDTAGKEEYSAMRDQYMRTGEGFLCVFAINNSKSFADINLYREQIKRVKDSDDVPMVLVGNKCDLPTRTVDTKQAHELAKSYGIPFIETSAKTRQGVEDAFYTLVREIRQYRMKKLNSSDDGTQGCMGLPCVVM
Chain of NRAS Q61K (P62937 whole entry): as the sequence (P62937 whole entry) above
Chain of KRAS WT (P01116 1-169 isoform P01116-2 limits assumed): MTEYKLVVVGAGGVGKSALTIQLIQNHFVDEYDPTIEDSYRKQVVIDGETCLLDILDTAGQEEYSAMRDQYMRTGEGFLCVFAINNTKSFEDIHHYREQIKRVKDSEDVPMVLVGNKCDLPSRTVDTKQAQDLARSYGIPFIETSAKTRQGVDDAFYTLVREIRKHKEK
Chain of KRAS WT (P62937 whole entry): as the sequence (P62937 whole entry) above
Chain of NRAS Q61R (P01111 whole entry Q61R): as the sequence (P01111 whole entry Q61K) above, with K61R counted along it
Chain of NRAS Q61R (P62937 whole entry): as the sequence (P62937 whole entry) above
Chain of KRAS G12D (P01116 1-169 isoform P01116-2 G12D limits assumed): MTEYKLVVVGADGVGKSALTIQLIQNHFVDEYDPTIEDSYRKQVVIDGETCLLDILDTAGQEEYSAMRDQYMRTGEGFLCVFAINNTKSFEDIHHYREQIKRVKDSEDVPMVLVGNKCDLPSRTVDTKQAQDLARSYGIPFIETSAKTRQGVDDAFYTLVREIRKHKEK
Chain of KRAS G12D (P62937 whole entry): as the sequence (P62937 whole entry) above
Chain of KRAS G12V (P01116 1-169 isoform P01116-2 G12V limits assumed): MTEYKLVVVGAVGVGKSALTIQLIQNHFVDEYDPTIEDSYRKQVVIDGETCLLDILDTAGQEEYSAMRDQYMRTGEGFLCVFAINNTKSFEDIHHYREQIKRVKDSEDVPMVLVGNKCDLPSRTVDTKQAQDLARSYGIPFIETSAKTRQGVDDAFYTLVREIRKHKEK
Chain of KRAS G12V (P62937 whole entry): as the sequence (P62937 whole entry) above
Chain of KRAS G13D (P01116 1-169 isoform P01116-2 G13D limits assumed): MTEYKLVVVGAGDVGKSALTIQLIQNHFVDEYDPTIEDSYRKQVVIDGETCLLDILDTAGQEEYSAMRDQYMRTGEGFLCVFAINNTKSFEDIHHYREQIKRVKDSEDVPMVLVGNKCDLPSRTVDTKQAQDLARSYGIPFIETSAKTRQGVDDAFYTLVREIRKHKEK
Chain of KRAS G13D (P62937 whole entry): as the sequence (P62937 whole entry) above
Chain of NRAS G12C (P01111 whole entry G12C): as the sequence (P01111 whole entry Q61K) above, with G12C, K61Q counted along it
Chain of NRAS G12C (P62937 whole entry): as the sequence (P62937 whole entry) above
Chain of KRAS G12C (P01116 1-169 isoform P01116-2 G12C limits assumed): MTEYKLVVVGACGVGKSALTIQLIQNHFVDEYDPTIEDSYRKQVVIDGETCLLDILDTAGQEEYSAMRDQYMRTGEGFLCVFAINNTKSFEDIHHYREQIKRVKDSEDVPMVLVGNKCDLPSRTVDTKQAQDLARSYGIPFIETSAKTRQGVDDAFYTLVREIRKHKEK
Chain of KRAS G12C (P62937 whole entry): as the sequence (P62937 whole entry) above
Chain of KRAS Q61H (P01116 1-169 isoform P01116-2 Q61H limits assumed): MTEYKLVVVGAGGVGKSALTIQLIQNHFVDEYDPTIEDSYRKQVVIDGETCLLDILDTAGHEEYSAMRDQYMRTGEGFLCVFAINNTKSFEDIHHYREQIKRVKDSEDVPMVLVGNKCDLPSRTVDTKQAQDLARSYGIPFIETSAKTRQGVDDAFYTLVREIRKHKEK
Chain of KRAS Q61H (P62937 whole entry): as the sequence (P62937 whole entry) above
Chain of NRAS WT (P01111 whole entry): as the sequence (P01111 whole entry Q61K) above, with K61Q counted along it
Chain of NRAS WT (P62937 whole entry): as the sequence (P62937 whole entry) above
Chain of KRAS G12S (P01116 1-169 isoform P01116-2 G12S limits assumed): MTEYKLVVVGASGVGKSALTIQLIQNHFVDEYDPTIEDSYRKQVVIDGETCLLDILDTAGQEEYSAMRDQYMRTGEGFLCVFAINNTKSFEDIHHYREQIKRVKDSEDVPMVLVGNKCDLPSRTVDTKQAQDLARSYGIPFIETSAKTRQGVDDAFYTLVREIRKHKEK
Chain of KRAS G12S (P62937 whole entry): as the sequence (P62937 whole entry) above

Row | SMILES | IC50 (KRAS G12D; [9]) | IC50 (KRAS G12S; [10]) | IC50 (KRAS G12V; [11]) | IC50 (KRAS G13C; [12]) | IC50 (KRAS G13D; [13]) | IC50 (KRAS Q61H; [14]) | IC50 (KRAS WT; [15]) | IC50 (NRAS G12C; [16]) | IC50 (NRAS Q61K; [17]) | IC50 (NRAS Q61R; [18]) | IC50 (NRAS WT; [19]) | IC50 (KRAS G12C; [20]) | other results
1 | CCn1c(-c2cccnc2[C@H](C)OC)c2c3cc(ccc31)-c1cc(O)cc(c1)C[C@H](NC(=O)[C@H](C(C)C)N1CC[C@H](NC(=O)[C@H]3CN3)C1=O)C(=O)N1CCC[C@H](N1)C(=O)OCC(C)(C)C2 [Example 213] | – | – | – | – | – | – | – | – | – | – | – | – | IC50 (KRAS G12D; [1]): 1000 to 10000 nM; IC50 (KRAS G12S; [2]): 100 to 1000 nM; IC50 (KRAS G12V; [3]): 100 to 1000 nM; IC50 (KRAS G13C; [4]): 10 to 100 nM; IC50 (KRAS G13D; [5]): 100 to 1000 nM; IC50 (KRAS Q61H): 10 to 100 nM; IC50 (KRAS WT; [6]): 10 to 100 nM; IC50 (NRAS G12C; [7]): 10 to 100 nM; IC50 (NRAS Q61K): 100 to 1000 nM; IC50 (NRAS Q61R): 100 to 1000 nM; IC50 (NRAS WT): 10 to 100 nM; IC50 (KRAS G12C; [8]): 10 to 100 nM
2 | CCn1c(-c2cccnc2[C@H](C)OC)c2c3cc(ccc31)-c1csc(n1)C[C@H](NC(=O)[C@H](C(C)C)N(C)C(=O)N(C)C1CN(C(=O)[C@H]3CN3)C1)C(=O)N1CCC[C@H](N1)C(=O)OCC(C)(C)C2 [Example 220] | 1000 to 10000 nM | 100 to 1000 nM | 100 to 1000 nM | 100 to 1000 nM | 100 to 1000 nM | 10 to 100 nM | 100 to 1000 nM | 100 to 1000 nM | 10 to 100 nM | 100 to 1000 nM | 100 to 1000 nM | 10 to 100 nM | –
3 | CCn1c(-c2cccnc2[C@H](C)OC)c2c3cc(ccc31)-c1csc(n1)C[C@H](NC(=O)[C@H](C(C)C)N(C)C(=O)N(C)C1CN(C(=O)[C@@H]3CN3)C1)C(=O)N1CCC[C@H](N1)C(=O)OCC(C)(C)C2 [Example 221] | 1000 to 10000 nM | 100 to 1000 nM | 100 to 1000 nM | 100 to 1000 nM | 100 to 1000 nM | 100 to 1000 nM | 100 to 1000 nM | 100 to 1000 nM | 100 to 1000 nM | 100 to 1000 nM | 100 to 1000 nM | 100 to 1000 nM | –
4 | CCn1c(-c2cc(C3CCN(C)CC3)cnc2[C@H](C)OC)c2c3cc(ccc31)-c1cc(O)cc(c1)C[C@H](NC(=O)[C@H](C1CCCC1)N(C)C(=O)CN(C)C(=O)[C@H]1CN1)C(=O)N1CCC[C@H](N1)C(=O)OCC(C)(C)C2 [Example 230] | – | – | – | – | – | – | – | – | – | – | – | – | IC50 (KRAS G12D; [1]): 10 to 100 nM; IC50 (KRAS G12S; [2]): 10 to 100 nM; IC50 (KRAS G12V; [3]): 10 to 100 nM; IC50 (KRAS G13C; [4]): < 10 nM; IC50 (KRAS G13D; [5]): 10 to 100 nM; IC50 (KRAS Q61H): < 10 nM; IC50 (KRAS WT; [6]): 10 to 100 nM; IC50 (NRAS G12C; [7]): < 10 nM; IC50 (NRAS Q61K): 100 to 1000 nM; IC50 (NRAS Q61R): 10 to 100 nM; IC50 (NRAS WT): 10 to 100 nM; IC50 (KRAS G12C; [8]): < 10 nM
5 | CCn1c(-c2cccnc2[C@H](C)OC)c2c3cc(ccc31)-c1csc(n1)C[C@H](NC(=O)[C@H](C(C)C)N(C)C(=O)N1CC[C@H]1CN(C)C(=O)[C@@H]1CN1)C(=O)N1CCC[C@H](N1)C(=O)OCC(C)(C)C2 [Example 235] | 1000 to 10000 nM | 1000 to 10000 nM | 1000 to 10000 nM | 1000 to 10000 nM | 1000 to 10000 nM | 100 to 1000 nM | 1000 to 10000 nM | 100 to 1000 nM | 100 to 1000 nM | 1000 to 10000 nM | 1000 to 10000 nM | 100 to 1000 nM | –
6 | CCn1c(-c2cccnc2[C@H](C)OC)c2c3cc(ccc31)-c1cc(O)cc(c1)C[C@H](NC(=O)[C@H](C(C)C)N(C)C(=O)[C@H]1CCCN(C(=O)[C@@H]3CN3)C1)C(=O)N1CCC[C@H](N1)C(=O)OCC(C)(C)C2 [Example 236] | 100 to 1000 nM | 100 to 1000 nM | 100 to 1000 nM | 100 to 1000 nM | 100 to 1000 nM | 100 to 1000 nM | 100 to 1000 nM | 10 to 100 nM | 1000 to 10000 nM | 1000 to 10000 nM | 100 to 1000 nM | 10 to 100 nM | –
7 | CCn1c(-c2cccnc2[C@H](C)OC)c2c3cc(ccc31)-c1cc(O)cc(c1)C[C@H](NC(=O)[C@H](C(C)C)N(C)C(=O)[C@@H]1CCCN(C(=O)[C@@H]3CN3)C1)C(=O)N1CCC[C@H](N1)C(=O)OCC(C)(C)C2 [Example 238] | 100 to 1000 nM | 10 to 100 nM | 100 to 1000 nM | 10 to 100 nM | 100 to 1000 nM | 10 to 100 nM | 10 to 100 nM | 10 to 100 nM | 100 to 1000 nM | 100 to 1000 nM | 10 to 100 nM | 10 to 100 nM | –
